Columns and labels:
[1] = dog, in vivo
Source text: An additional study was done using dogs as the animal model instead of rats.

[2] = Beagle, dog, in vivo

| % F ([1]; male) | measurable blood levels out to ([1]; male) | AUCINF/Dose ([1]; male, im) | mean AUCINF following IM administration, corrected for dose and time units [2] | Structure (SMILES) | irritation at the injection site [1] |
| --- | --- | --- | --- | --- | --- |
| 61.7% | 504 h | 329 | – | CC(=O)O[C@H]1CC[C@@]2(C)C(=CC[C@@H]3[C@@H]2CC[C@]2(C)C(c4cccnc4)=CC[C@@H]32)C1 [abiraterone acetate] | irritating to the dogs at the injection site |
| – | – | – | 105 ng·h/mL | C[C@]12CC[C@H](O)CC1=CC[C@@H]1[C@@H]2CC[C@]2(C)C(c3cccnc3)=CC[C@@H]12 [abiraterone, (3β)-17-(pyridin-3-yl) androsta-5, 16-dien-3-ol] | – |

Source: patent US12138273B2 (Propella Therapeutics, Inc., priority 2019, dated 2024)
